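Briefly, cells in 96-well plates were exposed to five compound concentrations for 48 h, and endpoints were estimated by linear interpolation. TGI: concentration producing complete growth inhibition.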
What was measured:
Test in all cases: DTP human tumour cell line panel, 48 h
NCI-H226 lung = tested on: NCI-H226 lung
UACC-62 melanoma = tested on: UACC-62 melanoma
NCI/ADR-RES ovarian = tested on: NCI/ADR-RES ovarian
HCT-116 colon = tested on: HCT-116 colon
HS 578T breast = tested on: HS 578T breast
U251 CNS = tested on: U251 CNS
TK-10 renal = tested on: TK-10 renal
SF-268 CNS = tested on: SF-268 CNS
IGROV1 ovarian = tested on: IGROV1 ovarian
PC-3 prostate = tested on: PC-3 prostate
OVCAR-4 ovarian = tested on: OVCAR-4 ovarian
MDA-MB-435 = tested on: MDA-MB-435
OVCAR-3 ovarian = tested on: OVCAR-3 ovarian
SNB-19 CNS = tested on: SNB-19 CNS
K-562 leukemia = tested on: K-562 leukemia
SK-MEL-2 melanoma = tested on: SK-MEL-2 melanoma
MDA-MB-231 breast = tested on: MDA-MB-231 breast
OVCAR-5 ovarian = tested on: OVCAR-5 ovarian
M14 melanoma = tested on: M14 melanoma
MOLT-4 leukemia = tested on: MOLT-4 leukemia
SNB-75 CNS = tested on: SNB-75 CNS
A549 NSCLC = tested on: A549 NSCLC
COLO 205 colon = tested on: COLO 205 colon
NCI-H522 lung = tested on: NCI-H522 lung
MCF7 breast = tested on: MCF7 breast
SK-OV-3 ovarian = tested on: SK-OV-3 ovarian
DU-145 prostate = tested on: DU-145 prostate
HT29 colon = tested on: HT29 colon
HOP-62 NSCLC = tested on: HOP-62 NSCLC
KM12 colon = tested on: KM12 colon
UO-31 renal = tested on: UO-31 renal
NCI-H23 lung = tested on: NCI-H23 lung
MALME-3M melanoma = tested on: MALME-3M melanoma
A498 renal = tested on: A498 renal
SW-620 colon = tested on: SW-620 colon
SK-MEL-5 melanoma = tested on: SK-MEL-5 melanoma
RPMI-8226 leukemia = tested on: RPMI-8226 leukemia
SR leukemia = tested on: SR leukemia
LOX IMVI melanoma = tested on: LOX IMVI melanoma
ACHN renal = tested on: ACHN renal
MDA-N = tested on: MDA-N
EKVX NSCLC = tested on: EKVX NSCLC
HOP-92 NSCLC = tested on: HOP-92 NSCLC
SK-MEL-28 melanoma = tested on: SK-MEL-28 melanoma
786-0 renal = tested on: 786-0 renal
SF-295 CNS = tested on: SF-295 CNS
SN12C renal = tested on: SN12C renal
HCT-15 colon = tested on: HCT-15 colon
OVCAR-8 ovarian = tested on: OVCAR-8 ovarian
RXF 393 renal = tested on: RXF 393 renal
UACC-257 melanoma = tested on: UACC-257 melanoma
NCI-H460 lung = tested on: NCI-H460 lung
BT-549 breast = tested on: BT-549 breast
HL-60(TB) leukemia = tested on: HL-60(TB) leukemia
CAKI-1 renal = tested on: CAKI-1 renal
CCRF-CEM leukemia = tested on: CCRF-CEM leukemia

COc1ccc(/C=C2\N=C(SC)N(CN3CCCCC3)C2=O)cc1
TGI (NCI-H226 lung): > 100 µM
TGI (UACC-62 melanoma): > 100 µM
TGI (NCI/ADR-RES ovarian): > 100 µM
TGI (HCT-116 colon): > 100 µM
TGI (HS 578T breast): > 100 µM
TGI (U251 CNS): > 100 µM
TGI (TK-10 renal): > 100 µM
TGI (SF-268 CNS): > 100 µM
TGI (IGROV1 ovarian): > 100 µM
TGI (PC-3 prostate): > 100 µM
TGI (OVCAR-4 ovarian): > 100 µM
TGI (MDA-MB-435): > 100 µM
TGI (OVCAR-3 ovarian): > 100 µM
TGI (SNB-19 CNS): > 100 µM
TGI (K-562 leukemia): > 100 µM
TGI (SK-MEL-2 melanoma): > 100 µM
TGI (MDA-MB-231 breast): > 100 µM
TGI (OVCAR-5 ovarian): > 100 µM
TGI (M14 melanoma): > 100 µM
TGI (MOLT-4 leukemia): > 100 µM
TGI (SNB-75 CNS): > 100 µM
TGI (A549 NSCLC): > 100 µM
TGI (COLO 205 colon): > 100 µM
TGI (NCI-H522 lung): > 100 µM
TGI (MCF7 breast): > 100 µM
TGI (SK-OV-3 ovarian): > 100 µM
TGI (DU-145 prostate): > 100 µM
TGI (HT29 colon): > 100 µM
TGI (HOP-62 NSCLC): > 100 µM
TGI (KM12 colon): > 100 µM
TGI (UO-31 renal): > 100 µM
TGI (NCI-H23 lung): > 100 µM
TGI (MALME-3M melanoma): > 100 µM
TGI (A498 renal): > 100 µM
TGI (SW-620 colon): > 100 µM
TGI (SK-MEL-5 melanoma): > 100 µM
TGI (RPMI-8226 leukemia): > 100 µM
TGI (SR leukemia): > 100 µM
TGI (LOX IMVI melanoma): > 100 µM
TGI (ACHN renal): > 100 µM
TGI (MDA-N): > 100 µM
TGI (EKVX NSCLC): > 100 µM
TGI (HOP-92 NSCLC): > 100 µM
TGI (SK-MEL-28 melanoma): > 100 µM
TGI (786-0 renal): > 100 µM
TGI (SF-295 CNS): > 100 µM
TGI (SN12C renal): > 100 µM
TGI (HCT-15 colon): > 100 µM
TGI (OVCAR-8 ovarian): > 100 µM

O=C(O)NCC1CCCCC1 (tested in a mixture with another compound)
TGI (NCI-H226 lung): 41.2 µM
TGI (UACC-62 melanoma): 34.2 µM
TGI (NCI/ADR-RES ovarian): 83.8 µM
TGI (HCT-116 colon): 88.7 µM
TGI (RXF 393 renal): 45.9 µM
TGI (U251 CNS): 20.3 µM
TGI (TK-10 renal): > 100 µM
TGI (UACC-257 melanoma): 63.2 µM
TGI (SF-268 CNS): 38.4 µM
TGI (IGROV1 ovarian): 23.3 µM
TGI (PC-3 prostate): 46.4 µM
TGI (OVCAR-4 ovarian): > 100 µM
TGI (MDA-MB-435): 58.1 µM
TGI (OVCAR-3 ovarian): 19.8 µM
TGI (SNB-19 CNS): > 100 µM
TGI (K-562 leukemia): 35.9 µM
TGI (SK-MEL-2 melanoma): 30.9 µM
TGI (MDA-MB-231 breast): 44.9 µM
TGI (OVCAR-5 ovarian): > 100 µM
TGI (M14 melanoma): > 100 µM
TGI (MOLT-4 leukemia): > 100 µM
TGI (SNB-75 CNS): 36.6 µM
TGI (NCI-H460 lung): 26.1 µM
TGI (A549 NSCLC): > 100 µM
TGI (BT-549 breast): 72.6 µM
TGI (HL-60(TB) leukemia): 38.5 µM
TGI (NCI-H522 lung): 28 µM
TGI (DU-145 prostate): 50.7 µM
TGI (HT29 colon): 66.6 µM
TGI (HOP-62 NSCLC): 33.8 µM
TGI (KM12 colon): 29.7 µM
TGI (CAKI-1 renal): > 100 µM
TGI (UO-31 renal): > 100 µM
TGI (CCRF-CEM leukemia): > 100 µM
TGI (NCI-H23 lung): 81.2 µM
TGI (MALME-3M melanoma): 7.15 µM
TGI (A498 renal): 34.1 µM
TGI (SW-620 colon): 52.4 µM
TGI (SK-MEL-5 melanoma): 28.7 µM
TGI (RPMI-8226 leukemia): 9.73 µM
TGI (SR leukemia): 72 µM
TGI (LOX IMVI melanoma): 28.6 µM
TGI (ACHN renal): 48.1 µM
TGI (MDA-N): 47.7 µM
TGI (EKVX NSCLC): > 100 µM
TGI (HOP-92 NSCLC): 24.4 µM
TGI (SK-MEL-28 melanoma): > 100 µM
TGI (786-0 renal): 77.3 µM
TGI (SF-295 CNS): 50.3 µM
TGI (SN12C renal): 28.1 µM
TGI (HCT-15 colon): 63.6 µM
TGI (OVCAR-8 ovarian): 31.7 µM

— PubChem BioAssay (NCI)
